# Assays:
# intact FGF23 = settings: women with IDA secondary to heavy uterine bleeding; Wolf et al., 2013; cited from earlier work
# [1] = cited from earlier work
# human C-terminal FGF23 = test: C-terminal FGF23 (cFGF23) over time, two-site ELISA, trials IDA-04/IDA-05; assay type: in vivo
# Procedure: The trial was a randomized, open-label, comparative trial. Subjects with Iron Deficiency Anaemia (IDA) were randomized 1:1 to one treatment course of one of the following treatments: • Group A: iron isomaltoside 1000 (Monofer®, Pharmacosmos, Holbok, Denmark, termed iron isomaltoside in the following), 1000 mg at baseline • Group B: ferric carboxymaltose (Ferinject®/Injectafer®, Vifor Inc, Switzerland), 750 mg at baseline and day 7, cumulative dose: 1500 mg […]
# (§1) The following safety laboratory assessments were analysed: • S-phosphate: inorganic phosphorous forms an ammonium phosphomolybdate complex having the formula (NH4)3[PO4](MoO3)12 with ammonium molybdate in the presence of sulfuric acid. The complex was determined photometrically in the ultraviolet region (340 nm) of the spectrum using the Roche Modular and Cobas Analyzer. • iFGF23 and cFGF23: the human intact FGF23 was measured by the 2nd generation Elisa kit manufactured by Immonotropics, Inc, San Clemente, CA. […] The human C-terminal FGF23 was measured by the Elisa kit manufactured by Immonotropics, Inc, San Clemente, CA. […] After evaporation under nitrogen, the residue was reconstituted and analyzed using Liquid Chromatography (LC) with Tandem Mass Spectrometric detection (MS/MS). […]
# human intact FGF23 = test: Intact FGF23 (iFGF23) over time, two-site ELISA, trials IDA-04/IDA-05; assay type: in vivo
# Procedure: The trial was a randomized, open-label, comparative trial. Subjects with Iron Deficiency Anaemia (IDA) were randomized 1:1 to one treatment course of one of the following treatments: • Group A: iron isomaltoside 1000 (Monofer®, Pharmacosmos, Holbok, Denmark, termed iron isomaltoside in the following), 1000 mg at baseline • Group B: ferric carboxymaltose (Ferinject®/Injectafer®, Vifor Inc, Switzerland), 750 mg at baseline and day 7, cumulative dose: 1500 mg
# The secondary safety endpoints were the following: • Incidence of s-phosphate below 1.0 mg/dL at any time from baseline to day 35 • Time with hypophosphatemia (i.e. time with s-phosphate <2.0 mg/dL) from baseline to day 35 • Proportion of subjects with hypophosphatemia at day 35 • Absolute [Δ] and relative [%] changes in s-phosphate from baseline to 1, 7, 8, 14, 21, and 35 • Fractional phosphate urinary excretion at 1, 7, 8, 14, 21, and 35 • Change in iFGF23, cFGF23, vitamin D (25, 1,25, 24,25), PTH, and ionized calcium from baseline to 1, 7, 8, 14, 21, and 35 • Type and incidence of AEs • Serious or severe hypersensitivity reaction starting on or after the first dose of randomized treatment (i.e. treatment emergent). The hypersensitivity terms were defined as standardised Medical Dictionary for Regulatory Activities query (SMQ) terms. […]
# The following safety laboratory assessments were analysed: • S-phosphate: inorganic phosphorous forms an ammonium phosphomolybdate complex having the formula (NH4)3[PO4](MoO3)12 with ammonium molybdate in the presence of sulfuric acid. The complex was determined photometrically in the ultraviolet region (340 nm) of the spectrum using the Roche Modular and Cobas Analyzer. • iFGF23 and cFGF23: the human intact FGF23 was measured by the 2nd generation Elisa kit manufactured by Immonotropics, Inc, San Clemente, CA. […] The human C-terminal FGF23 was measured by the Elisa kit manufactured by Immonotropics, Inc, San Clemente, CA. […] After evaporation under nitrogen, the residue was reconstituted and analyzed using Liquid Chromatography (LC) with Tandem Mass Spectrometric detection (MS/MS). […] A direct relationship exists between the amount of PTH present in the patient sample and the amount of relative light units (RLUs) detected by the system. • Ionized calcium: Measured by the IL GEM Premier 3500 PAK cartridge. […]
# [2] = system: vitamin D (25, 1,25, 24,25); test: Vitamin D (25, 1,25, 24,25) levels by LC-MS/MS, trials IDA-04/IDA-05; assay type: in vivo, human; settings: IDA-04 and IDA-05 combined
# Procedure: The term “serum vitamin D” as used herein refers to the level of vitamin Ds, in particular 25-hydroxyvitamin D, 1,25-dihydroxyvitamin D, and 24,25-dihydroxyvitamin D, in blood serum as measured by Liquid Chromatography and Tandem Mass Spectrometry (LC-MS/MS).
# The trial was a randomized, open-label, comparative trial. […]
# as §1
# [3] = compared to iron dextran, iron sucrose and iron isomaltoside 1000
substance,measurement,setting,value
ferric carboxymaltose [FCM],iFGF23 levels,intact FGF23,temporarily increased
same,risk for iFGF23-mediated reduction of serum phosphate levels and development of hypophosphatemia,"[1]; clinical trials and case reports, Wolf et al., 2013",highest risk
same,time to minimum serum phosphorous values,"[1]; clinical trials, EU SmPC",approximately 2 weeks
same,prevalence of hypophosphatemia,[1]; [3],higher prevalence
same,reduction in serum phosphate,[1]; [3],larger and longer reduction
same,time until serum phosphorous returned to within the range of baseline,"[1]; following treatment, clinical trials, EU SmPC",4 to 12 weeks
same,serum phosphate,"[1]; women with IDA secondary to heavy uterine bleeding, Wolf et al., 2013",reduced
same,cFGF23 on the first administration,human C-terminal FGF23; initially high due to underlying iron deficiency anemia,dropped sharply
same,cFGF23 on the second administration,human C-terminal FGF23; second administration (day 7),increased
same,iFGF23 after administration,"human intact FGF23; first administration (750 mg), then gradually declined over days",increased sharply
same,increase in iFGF23 after second dose relative to first dose,human intact FGF23; repeated dosing one week apart,2-3 fold
same,"iFGF23 on the second administration, relative to the initial level","human intact FGF23; second administration (750 mg, day 7)",several fold higher
same,"1,25-dihydroxyvitamin D",[2],decrease
same,"24,25-dihydroxyvitamin D",[2],increase
